# In ChEMBL document CHEMBL1949655, “Neomycin-phenolic conjugates: polycationic amphiphiles with broad-spectrum antibacterial activity, low hemolytic activity and weak serum protein binding” (Bioorg Med Chem Lett, 2012):
# Experiments:
# [1] = test system: Staphylococcus aureus; assay: microbe, parasite or virus in culture; format: functional; settings: ATCC 29213, 24 h
# Description: Antibacterial activity against Staphylococcus aureus ATCC 29213 after 24 hrs by macrobroth dilution method
# [2] = test system: Staphylococcus aureus; assay: microbe, parasite or virus in culture; format: functional; settings: ATCC 33592, 24 h
# Description: Antibacterial activity against methicillin-resistant Staphylococcus aureus ATCC 33592 after 24 hrs by macrobroth dilution method
# [3] = test system: Staphylococcus epidermidis; assay: microbe, parasite or virus in culture; format: functional; settings: Staphylococcus epidermidis, 81388, 24 h
# Description: Antibacterial activity against methicillin-susceptible Staphylococcus epidermidis 81388 after 24 hrs by macrobroth dilution method
# [4] = test system: Staphylococcus epidermidis; assay: microbe, parasite or virus in culture; format: functional; settings: isolate CAN-ICU61589, 24 h
# Description: Antibacterial activity against methicillin-resistant Staphylococcus epidermidis isolate CAN-ICU 61589 after 24 hrs by macrobroth dilution method
# [5] = test system: Enterococcus faecalis; assay: microbe, parasite or virus in culture; format: functional; settings: ATCC 29212, 24 h
# Description: Antibacterial activity against Enterococcus faecalis ATCC 29212 after 24 hrs by macrobroth dilution method
# [6] = test system: Enterococcus faecium; assay: microbe, parasite or virus in culture; format: functional; settings: ATCC 27270, 24 h
# Description: Antibacterial activity against Enterococcus faecium ATCC 27270 after 24 hrs by macrobroth dilution method
# [7] = test system: Streptococcus pneumoniae; assay: microbe, parasite or virus in culture; format: functional; settings: ATCC 49619, 24 h
# Description: Antibacterial activity against Streptococcus pneumoniae ATCC 49619 after 24 hrs by macrobroth dilution method
# [8] = test system: Escherichia coli; assay: microbe, parasite or virus in culture; format: functional; settings: ATCC 25922, 24 h
# Description: Antibacterial activity against Escherichia coli ATCC 25922 after 24 hrs by macrobroth dilution method
# [9] = test system: Escherichia coli; assay: microbe, parasite or virus in culture; format: functional; settings: isolate CAN-ICU 61714, 24 h
# Description: Antibacterial activity against Escherichia coli isolate CAN-ICU 61714 after 24 hrs by macrobroth dilution method
# [10] = test system: Escherichia coli; assay: microbe, parasite or virus in culture; format: functional; settings: isolate CAN-ICU 63074, 24 h
# Description: Antibacterial activity against Escherichia coli isolate CAN-ICU 63074 after 24 hrs by macrobroth dilution method
# [11] = test system: Pseudomonas aeruginosa; assay: microbe, parasite or virus in culture; format: functional; settings: ATCC 27853, 24 h
# Description: Antibacterial activity against Pseudomonas aeruginosa ATCC 27853 after 24 hrs by macrobroth dilution method
# [12] = test system: Pseudomonas aeruginosa; assay: microbe, parasite or virus in culture; format: functional; settings: isolate CAN-ICU 62308, 24 h
# Description: Antibacterial activity against Pseudomonas aeruginosa isolate CAN-ICU 62308 after 24 hrs by macrobroth dilution method
# [13] = test system: Stenotrophomonas maltophilia; assay: microbe, parasite or virus in culture; format: functional; settings: isolate CAN-ICU 62584, 24 h
# Description: Antibacterial activity against Stenotrophomonas maltophilia isolate CAN-ICU 62584 after 24 hrs by macrobroth dilution method
# [14] = test system: Acinetobacter baumannii; assay: microbe, parasite or virus in culture; format: functional; settings: isolate CAN-ICU 63169, 24 h
# Description: Antibacterial activity against Acinetobacter baumannii 63169 isolate CAN-ICU after 24 hrs by macrobroth dilution method
# [15] = test system: Klebsiella pneumoniae; assay: microbe, parasite or virus in culture; format: functional; settings: ATCC 13883, 24 h
# Description: Antibacterial activity against Klebsiella pneumoniae ATCC 13883 after 24 hrs by macrobroth dilution method
# [16] = test system: Staphylococcus aureus; assay: microbe, parasite or virus in culture; format: functional; settings: ATCC 29213, 24 h; remark: listed apart in the source
# Description: Antibacterial activity against Staphylococcus aureus ATCC 29213 after 24 hrs by macrobroth dilution method in the presence of bovine serum albumin
# [17] = test system: Staphylococcus aureus; assay: microbe, parasite or virus in culture; format: functional; settings: ATCC 33592, 24 h; remark: listed apart in the source
# Description: Antibacterial activity against methicillin-resistant Staphylococcus aureus ATCC 33592 after 24 hrs by macrobroth dilution method in the presence of bovine serum albumin
# [18] = test system: Staphylococcus epidermidis; assay: microbe, parasite or virus in culture; format: functional; settings: Staphylococcus epidermidis, 81388, 24 h; remark: listed apart in the source
# Description: Antibacterial activity against methicillin-susceptible Staphylococcus epidermidis 81388 after 24 hrs by macrobroth dilution method in the presence of bovine serum albumin
# [19] = test system: Staphylococcus epidermidis; assay: microbe, parasite or virus in culture; format: functional, isolate CAN-ICU 61589; settings: isolate CAN-ICU61589, 24 h
# Description: Antibacterial activity against methicillin-resistant Staphylococcus epidermidis isolate CAN-ICU 61589 after 24 hrs by macrobroth dilution method in the presence of bovine serum albumin
# [20] = test system: Enterococcus faecalis; assay: microbe, parasite or virus in culture; format: functional; settings: ATCC 29212, 24 h; remark: listed apart in the source
# Description: Antibacterial activity against Enterococcus faecalis ATCC 29212 after 24 hrs by macrobroth dilution method in the presence of bovine serum albumin
# [21] = test system: Enterococcus faecium; assay: microbe, parasite or virus in culture; format: functional; settings: ATCC 27270, 24 h; remark: listed apart in the source
# Description: Antibacterial activity against Enterococcus faecium ATCC 27270 after 24 hrs by macrobroth dilution method in the presence of bovine serum albumin
# [22] = test system: Streptococcus pneumoniae; assay: microbe, parasite or virus in culture; format: functional; settings: ATCC 49619, 24 h; remark: listed apart in the source
# Description: Antibacterial activity against Streptococcus pneumoniae ATCC 49619 after 24 hrs by macrobroth dilution method in the presence of bovine serum albumin
# [23] = test system: Escherichia coli; assay: microbe, parasite or virus in culture; format: functional; settings: ATCC 25922, 24 h; remark: listed apart in the source
# Description: Antibacterial activity against Escherichia coli ATCC 25922 after 24 hrs by macrobroth dilution method in the presence of bovine serum albumin
# [24] = test system: Escherichia coli; assay: microbe, parasite or virus in culture; format: functional; settings: isolate CAN-ICU 61714, 24 h; remark: listed apart in the source
# Description: Antibacterial activity against Escherichia coli isolate CAN-ICU 61714 after 24 hrs by macrobroth dilution method in the presence of bovine serum albumin
# [25] = test system: Escherichia coli; assay: microbe, parasite or virus in culture; format: functional; settings: isolate CAN-ICU 63074, 24 h; remark: listed apart in the source
# Description: Antibacterial activity against Escherichia coli isolate CAN-ICU 63074 after 24 hrs by macrobroth dilution method in the presence of bovine serum albumin
# [26] = test system: Pseudomonas aeruginosa; assay: microbe, parasite or virus in culture; format: functional; settings: ATCC 27853, 24 h; remark: listed apart in the source
# Description: Antibacterial activity against Pseudomonas aeruginosa ATCC 27853 after 24 hrs by macrobroth dilution method in the presence of bovine serum albumin
# [27] = test system: Pseudomonas aeruginosa; assay: microbe, parasite or virus in culture; format: functional; settings: isolate CAN-ICU 62308, 24 h; remark: listed apart in the source
# Description: Antibacterial activity against Pseudomonas aeruginosa isolate CAN-ICU 62308 after 24 hrs by macrobroth dilution method in the presence of bovine serum albumin
# [28] = test system: Stenotrophomonas maltophilia; assay: microbe, parasite or virus in culture; format: functional; settings: isolate CAN-ICU 62584, 24 h; remark: listed apart in the source
# Description: Antibacterial activity against Stenotrophomonas maltophilia isolate CAN-ICU 62584 after 24 hrs by macrobroth dilution method in the presence of bovine serum albumin
# [29] = test system: Acinetobacter baumannii; assay: microbe, parasite or virus in culture; format: functional; settings: isolate CAN-ICU 63169, 24 h; remark: listed apart in the source
# Description: Antibacterial activity against Acinetobacter baumannii isolate CAN-ICU 63169 after 24 hrs by macrobroth dilution method in the presence of bovine serum albumin
# [30] = test system: Klebsiella pneumoniae; assay: microbe, parasite or virus in culture; format: functional; settings: ATCC 13883, 24 h; remark: listed apart in the source
# Description: Antibacterial activity against Klebsiella pneumoniae ATCC 13883 after 24 hrs by macrobroth dilution method in the presence of bovine serum albumin
# [31] = Toxicity in human erythrocytes assessed as hemolysis at 100 ug/ml by spectrophotometry; settings: at 100 µg/mL
# [32] = test system: Pseudomonas aeruginosa; assay: Ratio of MIC90 of neomycin sulfate to MIC90 of compound against Pseudomonas aeruginosa ATCC 27853; format: functional
# [33] = test system: Pseudomonas aeruginosa; assay: Ratio of MIC90 of neomycin sulfate to MIC90 of compound against Pseudomonas aeruginosa 62308; format: functional
SMILES,MIC90 [1],MIC90 [2],MIC90 [3],MIC90 [4],MIC90 [5],MIC90 [6],MIC90 [7],MIC90 [8],MIC90 [9],MIC90 [10],MIC90 [11],MIC90 [12],MIC90 [13],MIC90 [14],MIC90 [15],MIC90 [16],MIC90 [17],MIC90 [18],MIC90 [19],MIC90 [20],other results
Cc1cc(OCc2cn(C[C@H]3O[C@@H](O[C@@H]4[C@@H](O)[C@H](N)C[C@H](N)[C@H]4O[C@H]4O[C@H](CN)[C@@H](O)[C@H](O)[C@H]4N)[C@H](O)[C@@H]3O[C@H]3O[C@@H](CN)[C@@H](O)[C@H](O)[C@H]3N)nn2)cc(C)c1Cl,16 µg/mL,256 µg/mL,8 µg/mL,8 µg/mL,64 µg/mL,128 µg/mL,64 µg/mL,16 µg/mL,16 µg/mL,128 µg/mL,512 µg/mL,256 µg/mL,> 512 µg/mL,> 512 µg/mL,8 µg/mL,32 µg/mL,512 µg/mL,8 µg/mL,8 µg/mL,128 µg/mL,MIC90 [21]: 64 µg/mL; MIC90 [22]: 128 µg/mL; MIC90 [23]: 32 µg/mL; MIC90 [24]: 16 µg/mL; MIC90 [25]: 128 µg/mL; MIC90 [26]: 512 µg/mL; MIC90 [27]: 256 µg/mL; MIC90 [28]: > 512 µg/mL; MIC90 [29]: > 512 µg/mL; MIC90 [30]: 4 µg/mL; hemolysis at 100 ug/ml [31]: 0.75%
Cc1cc(OCCCCc2cn(C[C@H]3O[C@@H](O[C@@H]4[C@@H](O)[C@H](N)C[C@H](N)[C@H]4O[C@H]4O[C@H](CN)[C@@H](O)[C@H](O)[C@H]4N)[C@H](O)[C@@H]3O[C@H]3O[C@@H](CN)[C@@H](O)[C@H](O)[C@H]3N)nn2)cc(C)c1Cl,16 µg/mL,128 µg/mL,8 µg/mL,8 µg/mL,128 µg/mL,16 µg/mL,64 µg/mL,32 µg/mL,16 µg/mL,128 µg/mL,512 µg/mL,256 µg/mL,> 512 µg/mL,512 µg/mL,4 µg/mL,32 µg/mL,256 µg/mL,8 µg/mL,8 µg/mL,128 µg/mL,MIC90 [21]: 32 µg/mL; MIC90 [22]: 256 µg/mL; MIC90 [23]: 32 µg/mL; MIC90 [24]: 16 µg/mL; MIC90 [25]: 128 µg/mL; MIC90 [26]: > 512 µg/mL; MIC90 [27]: 256 µg/mL; MIC90 [28]: > 512 µg/mL; MIC90 [29]: 512 µg/mL; MIC90 [30]: 4 µg/mL; hemolysis at 100 ug/ml [31]: 0.75%
CC(C)(C)CC(C)(C)c1ccc(OCc2cn(C[C@H]3O[C@@H](O[C@@H]4[C@@H](O)[C@H](N)C[C@H](N)[C@H]4O[C@H]4O[C@H](CN)[C@@H](O)[C@H](O)[C@H]4N)[C@H](O)[C@@H]3O[C@H]3O[C@@H](CN)[C@@H](O)[C@H](O)[C@H]3N)nn2)c(Cc2ccc(Cl)cc2Cl)c1,8 µg/mL,8 µg/mL,4 µg/mL,1 µg/mL,8 µg/mL,8 µg/mL,64 µg/mL,16 µg/mL,64 µg/mL,64 µg/mL,128 µg/mL,64 µg/mL,512 µg/mL,64 µg/mL,64 µg/mL,8 µg/mL,16 µg/mL,2 µg/mL,4 µg/mL,16 µg/mL,MIC90 [21]: 8 µg/mL; MIC90 [22]: 128 µg/mL; MIC90 [23]: 64 µg/mL; MIC90 [24]: 128 µg/mL; MIC90 [25]: 256 µg/mL; MIC90 [26]: 512 µg/mL; MIC90 [27]: 128 µg/mL; MIC90 [28]: > 512 µg/mL; MIC90 [29]: 256 µg/mL; MIC90 [30]: 64 µg/mL; hemolysis at 100 ug/ml [31]: 27.5%; Ratio [32]: 4; Ratio [33]: 4
CC(C)(C)CC(C)(C)c1ccc(OCCCCc2cn(C[C@H]3O[C@@H](O[C@@H]4[C@@H](O)[C@H](N)C[C@H](N)[C@H]4O[C@H]4O[C@H](CN)[C@@H](O)[C@H](O)[C@H]4N)[C@H](O)[C@@H]3O[C@H]3O[C@@H](CN)[C@@H](O)[C@H](O)[C@H]3N)nn2)c(Cc2ccc(Cl)cc2Cl)c1,16 µg/mL,16 µg/mL,8 µg/mL,8 µg/mL,64 µg/mL,8 µg/mL,64 µg/mL,64 µg/mL,64 µg/mL,128 µg/mL,128 µg/mL,64 µg/mL,512 µg/mL,256 µg/mL,32 µg/mL,16 µg/mL,32 µg/mL,4 µg/mL,4 µg/mL,64 µg/mL,MIC90 [21]: 16 µg/mL; MIC90 [22]: 64 µg/mL; MIC90 [23]: 64 µg/mL; MIC90 [24]: 128 µg/mL; MIC90 [25]: 256 µg/mL; MIC90 [26]: 512 µg/mL; MIC90 [27]: 256 µg/mL; MIC90 [28]: > 512 µg/mL; MIC90 [29]: > 512 µg/mL; MIC90 [30]: 32 µg/mL; hemolysis at 100 ug/ml [31]: 22.5%; Ratio [32]: 4; Ratio [33]: 4
